What was measured:
[1] = test system: L1210; experiment: Percent inhibition of incorporation of [Me-3H]-Thymidine into DNA of L1210 cells; type: functional, Mus musculus
[2] = test system: L1210; experiment: Percent inhibition of incorporation of [8-14C]-Adenine into DNA of L1210 cells; type: functional, Mus musculus
[3] = test system: L1210; experiment: Percent inhibition of incorporation of [5-3H]-Uridine into DNA of L1210 cells; type: functional, Mus musculus
[4] = test system: L1210; experiment: Cytotoxicity was evaluated against the L1210 cell lines in vitro; type: functional; conditions: Mus musculus, read-out: ED50 (the source's name)

SMILES	Inhibition [1]	Inhibition [2]	Inhibition [3]	EC50 [4]
Cc1cn(C2CC(O)C(CCNC(=O)CBr)O2)c(=O)[nH]c1=O (centres undefined)	52%	67%	60%	
O=C(CBr)NC[C@H]1OC(n2cnc3c(O)ncnc32)[C@H](O)[C@@H]1O (some centres undefined)				< 5 µg/mL

Source: ChEMBL document CHEMBL1121805, “Nucleosides containing chemically reactive groups” (1981)
